The record followed here is US9096547B2, “Sodium salt of 6-fluoro-3-hydroxy-2-pyrazine carboxamide” (Toyama Chemical Co., Ltd., priority 2010, dated 2015).

Data set [1] can be described thus: Stability (1): appearance after standing at 60° C. for 1 month. The class given is physicochemical. As to conditions: stand still at 60° C. for 1 month. The procedure:
The preparations of Examples 1, 7, 9, 10, 11, 12, 25, 28 and 29 were allowed to stand still at 60° C. for 1 month and then their appearance was observed.

A short description of data set [2]: Stability (2): appearance after irradiation by a D65 lamp. The class given is physicochemical. Particulars: irradiated (1,200,000 lx·hr) by a D65 lamp. An excerpt: The preparations of Examples 1, 10, 15, 16, 22 and Comparative Example 1 were irradiated (1,200,000 lx·hr) by a D65 lamp (FLR20S-D-EDL-D65/M) and then their appearance was observed.

For the molecule `NC(=O)c1nc(F)cnc1O.[Na]` [Example 1, sodium salt of 6-fluoro-3-hydroxy-2-pyrazinecarboxamide], the appearance change result in data set [1] and in data set [2] was “appearance change was not observed” throughout.
